The nature of data set [1]: Photobleaching under constant illumination. Conditions: identical illumination conditions, on average. How it is done: FIG. 16|Formation of 5S-Mango foci and their dynamics in live cells. (a) 5S-Mango IV imaged post cell fixation at 5, 15, 30 and 60 mins after transfection using Lipofectamine based CRISPRMAX transfection reagent. […] (c) Root mean-squared displacement (RMSD) of three observed foci with different diffusive behaviors, fast (Green), slow (Blue) and static (Red) shown in Video 3. Scale bars are 10 μm and arrows indicate foci of interest. (d) Normalized photobleaching traces of 5S-F30-Mango I and IV compared to 5S-F30-dBroccoli under constant illumination with an exposure time of 200 ms. Photobleaching half-lives are stated in the table adjacent and were calculated from an exponential fit of each curve.

The nature of data set [2]: Brightness and photophysics of Mango fluorophore complexes. In kind it is physicochemical. The source says: (§1) FIG. 2|RNA Mango I, II, III and IV core sequences and their properties. (a) Color coded alignment of RNA Mango I, II, III and IV. G residues in yellow are protected from DMS cleavage (data from panel d) when folded in the presence of fluorophore. Quadruplex stacks and their associated propeller sequences are numbered 1 through 4. The GAAA isolation motif of Mango I, together with two adenines essential for binding, are shown in green and red respectively. Purple shading represents a flanking stem region common for all four Mango aptamers. Schematic: A tertiary structure schematic of Mango I, showing tier 1, 2 and 3 of its quadruplex structure (T1, T2 and T3) and color-coded as in (a). […] Bottom: Top view of the Mango I core (PBD ID: 5V3F), showing the T3 tier of the quadruplex and relevant propeller residues, color coding matches the schematic and panel a. […] KD values are shown next to each titration. (c) Same as for panel b but using 20 nM TO3-Biotin. Data for panels b and c have been normalized such that Mango I has a maximum fluorescence of 1. Error bars are standard deviation of three replicates. (d) DMS chemical protection patterns for the four Mango aptamers. 3′ end-labelled RNA (terminal ^32pCp shown as a black asterisk) was subjected to DMS chemical modification followed by reduction by NaBH4 and aniline cleavage as described in the methods. […] Legend: T1—denatured T1 ladder; OH—partial alkaline hydrolysis ladder; (−) DMS—denatured reaction with ddH2O added in place of DMS; 80° C.
FIG. 13|Photophysics: excitation/emission. (a) Excitation (dark curve) and emission (light curve) spectra of each Mango. All Mangos have Δex max=510 nm and Δem max=535 nm. Color-coding is as follows: Black—Mango I, Blue—Mango II, Green—Mango III, Red—Mango IV.
(§2) Fluorescence data was gathered using a Varian Cary Eclipse Spectrophotometer unless otherwise stated. […] Fluorescence was measured at the maximum excitation and emission wavelengths of each complex (FIG. 13).

For data set [3] the following is noted: original RNA Mango, earlier work; read-out: Kd for TO3-Biotin; cited from earlier work.
For data set [4] the following is noted: read-out: Kd for TO1-Biotin, original RNA Mango, earlier work, cited from earlier work.
The nature of data set [5]: Formaldehyde resistance assay. Conditions: in vitro, TO1-Biotin. Format: physicochemical. The protocol: FIG. 15|Effect of formaldehyde on Mango fluorescence. […] In (b) RNA is incubated with the corresponding amounts of formaldehyde first for one hour, then TO1-Biotin is added. Data for each panel is normalized to RFU at the 0% formaldehyde, 0 min point.
RNA Mango aptamers were incubated with TO1-Biotin in WB buffer for at least one hour until equilibrium fluorescence was reached. […] Fluorescence was measured as a kinetic run at a rate of 2 readings per minute using a Varian Cary Eclipse Fluorescence Spectrophotometer, ex/em=510±2.5/535±5 nm.

A short description of data set [6]: Salt dependence of Mango/TO1-Biotin fluorescence: Na+ in place of K+. In kind it is binding. How it is done:
(§3) FIG. 10|Salt dependence of new Mango variants. Dependence of fluorescence of each Mango for (a) K^+, (b) Na^+ in place of K^+, and (c) Mg^2+ ions in a buffer containing 140 mM K^+. […] 10 mM Tris buffer (pH 7.2) was used in place of phosphate of the WB buffer to avoid monovalent counter ions. Color-coding is as follows: Black—Mango I, Blue—Mango II, Green—Mango III, Orange—Mango IV. Hill coefficients are fitted to dark points. Points in lighter shade have been excluded from the fit. Error bars are standard deviations of three replicates.

Data set [7] in a line: Salt dependence of Mango/TO1-Biotin fluorescence: K+ titration. In kind it is binding. Conditions: for Kd / Hill Coefficients K^+: 25 nM RNA, 50 nM TO1-Biotin, 10 mM Tris pH 7.2; for Hill Coefficients K^+: * estimated from initial rise of fluorescence. How it is done:
as §3

Data set [8] is described as follows: Salt dependence of Mango/TO1-Biotin fluorescence: Mg2+ titration. Conditions: in the presence of potassium; Mg2+ 256 mM. The protocol: as §3
A short description of data set [9]: In vitro fluorescence of Mango tagged RNA constructs. In kind it is biochemical. Conditions: 40 nM TO1-Biotin, 200 nM RNA. The source says: FIG. 14|RNA scaffold diagrams. Diagrams of the 5S-Mango and U6-Mango constructs synthesized (sequences in Table 2) and their fluorescence emission as a function of wavelength after excitation at 505 nm, compared to unmodified Mango I-IV.
DNA encoding the F30 folding scaffold was modified to incorporate the Mango RNA sequences and ordered from (Intergrated DNA Technologies). The DNA was amplified by PCR to incorporate 5′ SalI and 3′ Xbal restriction sites. PCR products were digested using Fast Digest enzymes (Thermo Fisher) and ligated into SalI/Xbal linearized and Shrimp Alkaline Phosphotase (NEB) treated pAV5S-F30-2xdBroccoli (Addgene plasmid 66845, a gift from Dr S. Jaffrey). DNA encoding the full 5S-F30-Mango sequence was PCR amplified and a 5′ T7 RNA polymerase promoter introduced. DNA was transcribed in vitro with T7 RNA polymerase (NEB) at 37° C. for 16 h in 40 mM Tris-HCl, 30 mM MgCl2, 2 mM spermidine, 1 mM dithiothreitol, 5 mM rNTPs, 1 U/μl E. coli inorganic pyrophosphotase, 4 U/μl T7 RNA polymerase (pH 7.9). RNA was purified from an 8 M urea denaturing polyacrylamide […] gel followed by elution in RNA elution buffer (40 mM Tris-HCl pH 8.0, 0.5 M sodium acetate, 0.1 mM EDTA) and ethanol precipitation.

For the next data set, the system named is HEK293T cells. Kind of data set: Cellular imaging of transfected Mango tagged RNAs. In kind it is cell-based. Conditions: against 5S-F30-Mango-IV. The protocol: HEK293T cells were grown in Dulbecco Modified Eagle's Medium containing 10% Fetal Bovine Serum, 2 mM D-Glucose, 2 mM L-Glutamine, 1 mM Sodium Pyruvate and 100 U/ml Penicillin/Streptomycin (Thermo Fisher) and maintained at 37° C. with 5% CO2 in a humidified incubator. Cells used for imaging were cultured in Ibidi glass bottomed 8-well chamber slides (Ibidi GmbH).
RNA was transfected directly into 8-well chamber slides using the Lipofectamine-based CRISPRMAX reagent following the manufacturers guidelines (Invitrogen). Initially 125 nM RNA containing 10 mM Sodium Phosphate buffer (pH 7.2), 100 mM KCl and 1 mM MgCl2 was incubated at room temperature followed by a 1:1 dilution in OptiMEM prior to transfection. The RNA transfected was incubated at 37° C. for 1 hour in complete growth medium.
Cells were fixed in PBS containing 4% paraformaldehyde for 10 min on ice (Thermo Fisher) followed by permeabilization in 0.2% Triton X-100 for 10 min at room temperature. Cells were first blocked (2% BSA in PBS) for 30 min followed by primary antibody (1:50-1:500 dilutions) incubation for 120 min in blocking solution.
Primary antibodies used here were: Anti-Ribosomal Protein S6 (MAB5436, R&D Systems), Anti-ATP5B (ab14730, Abcam), Anti-GW182 (ab7052, Abcam), Anti-EEA-1 (ab70521, Abcam), Anti-LSm3 (NBP2-14206, Novus Biologicals), Anti-TIAR (sc-398372, Santa Cruz). Secondary antibodies used were Donkey Anti-mouse and Donkey Anti-Rabbit Alexa Fluor 680 (Molecular Probes). Primary antibodies were washed three times for 20 min each in blocking solution followed by incubation with secondary antibody at 1:500 dilution for 60 min, which was subsequently washed as above.
To visualize the nuclear boundary in live cells, a plasmid expressing a fluorescently tagged histone protein (EBFP2-H2B-6, Addgene plasmid 55243) was transfected using FuGene 6 (Promega) 24 h prior to RNA transfection. […] Following incubation of the RNA transfection, the cells were washed once with PBS and replaced with live-cell imaging media (Fluorobrite DMEM supplemented with 20 mM HEPES, Invitrogen). Live and fixed cell images were taken using a Zeiss Elyra wide-field microscope by exciting at 405 nm (Blue), 488 nm (Green) and 642 nm (Far-Red) and detecting at 420-480 nm, 495-550 nm and >650 nm, respectively. Live cells were maintained at 37° C. with 5% CO2 in a stage top incubator (Tokai Hit). Images were processed using FIJI and spot detection analysis was performed on each maximum projection by the spot detector plugin in the ICY image analysis software, which detects significant foci with a pixel area 3×3 pixels.

The next data set concerns Circular template. Description: Rolling circle transcription of Mango III. Format: biochemical. Conditions: room temperature, excess TO1-Biotin. The source says: FIG. 33|Rolling circle transcription of Mango III.
FIG. 34|Rolling circle transcription of Mango III. Circular construct represented here was used in FIG. 33. Purple: T7 binding site, red and orange template hybridization arms (ligation site between them). Blue Mango sequence.
This illustrates that in select embodiments Mango aptamers may be used for detection of nucleic acids in a two-step fluorescence-based detection system using the Mango aptamers as the reporter. […] Nucleic acid concentration can be discerned by a simple fluorescence reading. In these assays, the Mango III fluorescence emerged rapidly upon the addition of the RNA polymerase (FIG. 32).

Data set [10] can be described thus: Brightness response to a fluorophore series. Format: biochemical. Conditions: 500 nM RNA, 10 nM fluorophore. The protocol: FIG. 53|Brightness response of MI, MII, MIII mutants and MIV to a fluorophore series. Single fluorescence point reads done in triplicate. 500 nM RNa was incubated with 10 nM fluorophore at room temperature for ˜1 h to allow folding of the RNA aptamers in 1×WB (140 mM KCl, 1 mM MgCl2, 10 mM NaH2PO4, pH 7.2.

The nature of data set [11]: Fluorescence titration, binding affinity for TO1-Biotin.
Source text: as §1, §2
Where F([RNA]) is the fluorescence as a function of RNA concentration [RNA], Fmax is the maximal fluorescence of the bound complex and Funbound the fluorescence of the unbound fluorophore. When the fluorescence of Funbound was undetectable, it was set to zero.
Fluorescence readings were recorded using a Varian Cary Eclipse Spectrophotometer set to measure at the maximum excitation and emission wavelengths of the Mango II aptamer dye complex. Fluorescence titrations were performed in Mango selection buffer (WB: 140 mM KCl, 1 mM MgCl2, 10 mM NaH2PO4 pH 7.2, 0.05% Tween-20).

[12] abbreviates: Na+ in place of K+, 25 nM RNA, 50 nM TO1-Biotin.

We go through three substances from patent publication US11434490B2, “Fluorogen-binding RNA aptamers” (CENTRE NATIONAL DE LA RECHERCHE SCIENTIFIQUE, priority 2017, dated 2022).

Read-outs that look alike come from different tables or passages of the source.

As usually defined, the Kd is a measure of binding affinity in units of concentration.

Regarding “Mango-I: original RNA Mango aptamer; core SEQ ID NO: 1 GAAGGGACGGUGCGGAGAGGAGA (chemistry not given here) [reference compound]”, the “bleaching half-lives longer than RNA Spinach” value in [1] is reported as 10 times. In data set [2], the “quantum yield of the TO1-Biotin complex” value is reported as 0.14. For the same substance, in [2], the “brightness of the TO1-Biotin bound complex” value is recorded as 11,000 M^−1cm^−1. Moreover, the Kd in data set [3] was 0.008 µM; in data set [4], ~0.003 µM; in data set [4] (listed as RNA Mango), 0.0031 µM; in data set [7], 48 ± 5 mM. For the same substance, the resistance to formaldehyde entry in data set [5] is recorded as “substantially resistant to formaldehyde”. Also, the “fluorescence in the presence of sodium ions” value in data set [6] is listed as “did not fluoresce appreciably”. The “Hill Coefficients K^+” value in data set [7] is reported as 1.2 ± 0.1. Moreover, the “effect of high levels of Mg^2+ on fluorescence” value in [8] is on record as “strongly inhibited”.

For “U6-Mango-IV: U6 snRNA with Mango-IV in an internal stem loop; SEQ ID NO: 6896 [Mango U6-Mango-IV]”, in data set [9], the “fluorescence intensity in vitro” value is given as “comparable fluorescence intensity to Mango IV alone”. The “increase of the fraction of nuclear foci” value in the data set on HEK293T cells is on record as ~9 fold.

Turning to “Mango-III: minimal construct engineered from isolate R5-NMM-20; two-tiered G-quadruplex aptamer”, in the data set with Circular template, the sensitivity turned out to be 5 nM. In data set [2] (TO1-Biotin bound complex), the “brighter than enhanced GFP (EGFP)” value came to 1.3 times. Also, the “brightness of the TO1-Biotin bound complex” value in data set [2] is reported as 43,000 M^−1cm^−1. Moreover, the “brighter than Mango-I” value in data set [2] (TO1-Biotin, FIG. 2b) was found to be 4 fold. Besides, in [6] (setting [12]), the “Hill Coefficients Na^+” value came to 0.5 ± 0.5 and the Kd was found to be 0.8 ± 0.3 mM. The “binding of TO1 fluorophore derivatives” value in [10] is “bound to a broad set of TO1 fluorophore derivatives”. In addition, the “TO1-Biotin binding affinity (in words)” value in data set [11] is listed as “slightly weaker affinities than Mango-I”. Further, in data set [7], the Kd was determined as 0.4 ± 0.1 mM and the “Hill Coefficients K^+” value was 1.0 ± 0.8*. Moreover, the “higher affinity of the fluorescence response to potassium and sodium” value in data set [7] (against the other Mangos) is on record as “two order of magnitude”. The “effect of high levels of Mg^2+ on fluorescence” value in data set [8] was “only modestly inhibited”.
